Data from PubChem BioAssay (NCI).
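Tested at 5 concentrations; 48 h exposure; 96-well plates; endpoints linearly interpolated, else capped at highest concentration. GI50 marks 50% less growth. TGI: total growth inhibition.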

Legend:
Assay in all cases: inhibition of tumour cell growth, NCI panel, 48 h
HCT-15 colon = tested on: HCT-15 colon
786-0 renal = tested on: 786-0 renal
UO-31 renal = tested on: UO-31 renal
BT-549 breast = tested on: BT-549 breast
HOP-92 NSCLC = tested on: HOP-92 NSCLC
MDA-MB-435 = tested on: MDA-MB-435
HT29 colon = tested on: HT29 colon
UACC-62 melanoma = tested on: UACC-62 melanoma
SK-OV-3 ovarian = tested on: SK-OV-3 ovarian
EKVX NSCLC = tested on: EKVX NSCLC
HCT-116 colon = tested on: HCT-116 colon
NCI/ADR-RES ovarian = tested on: NCI/ADR-RES ovarian
T-47D breast = tested on: T-47D breast
HS 578T breast = tested on: HS 578T breast
NCI-H23 lung = tested on: NCI-H23 lung
SF-295 CNS = tested on: SF-295 CNS
M14 melanoma = tested on: M14 melanoma
OVCAR-5 ovarian = tested on: OVCAR-5 ovarian
U251 CNS = tested on: U251 CNS
KM12 colon = tested on: KM12 colon
SF-539 CNS = tested on: SF-539 CNS
A498 renal = tested on: A498 renal
SNB-19 CNS = tested on: SNB-19 CNS
SW-620 colon = tested on: SW-620 colon
A549 NSCLC = tested on: A549 NSCLC
SK-MEL-5 melanoma = tested on: SK-MEL-5 melanoma
MOLT-4 leukemia = tested on: MOLT-4 leukemia
NCI-H522 lung = tested on: NCI-H522 lung
HCC-2998 colon = tested on: HCC-2998 colon
RPMI-8226 leukemia = tested on: RPMI-8226 leukemia
K-562 leukemia = tested on: K-562 leukemia
OVCAR-8 ovarian = tested on: OVCAR-8 ovarian
RXF 393 renal = tested on: RXF 393 renal
PC-3 prostate = tested on: PC-3 prostate
HOP-62 NSCLC = tested on: HOP-62 NSCLC
COLO 205 colon = tested on: COLO 205 colon
MALME-3M melanoma = tested on: MALME-3M melanoma
UACC-257 melanoma = tested on: UACC-257 melanoma
TK-10 renal = tested on: TK-10 renal
SN12C renal = tested on: SN12C renal
MDA-MB-231 breast = tested on: MDA-MB-231 breast
IGROV1 ovarian = tested on: IGROV1 ovarian
OVCAR-3 ovarian = tested on: OVCAR-3 ovarian
NCI-H226 lung = tested on: NCI-H226 lung
HL-60(TB) leukemia = tested on: HL-60(TB) leukemia
NCI-H460 lung = tested on: NCI-H460 lung
SF-268 CNS = tested on: SF-268 CNS
LOX IMVI melanoma = tested on: LOX IMVI melanoma
ACHN renal = tested on: ACHN renal
MCF7 breast = tested on: MCF7 breast
CCRF-CEM leukemia = tested on: CCRF-CEM leukemia
CAKI-1 renal = tested on: CAKI-1 renal
SK-MEL-2 melanoma = tested on: SK-MEL-2 melanoma
DU-145 prostate = tested on: DU-145 prostate
SR leukemia = tested on: SR leukemia
SK-MEL-28 melanoma = tested on: SK-MEL-28 melanoma
OVCAR-4 ovarian = tested on: OVCAR-4 ovarian

Question: Which GI50 (HCT-15 colon) does the source give for `C#CCOc1cccc(Nc2ncnc3c(NC(=O)CCl)cccc23)c1` here?
Answer: 20.2 µM

Question: What about the TGI (HCT-15 colon) of the same compound?
Answer: 72.5 µM

Question: What about the GI50 (786-0 renal) of the same compound?
Answer: 18.7 µM

Question: And the TGI (786-0 renal)?
Answer: 37.9 µM

Question: And the GI50 (UO-31 renal)?
Answer: 15.5 µM

Question: What about the TGI (UO-31 renal) of the same compound?
Answer: 39.2 µM

Question: And the GI50 (BT-549 breast)?
Answer: 19.3 µM

Question: What about the TGI (BT-549 breast) of the same compound?
Answer: 62.5 µM

Question: And the GI50 (HOP-92 NSCLC)?
Answer: 17 µM

Question: And the TGI (HOP-92 NSCLC)?
Answer: 33.8 µM

Question: What about the GI50 (MDA-MB-435) of the same compound?
Answer: 26.2 µM

Question: What about the TGI (MDA-MB-435) of the same compound?
Answer: > 100 µM

Question: What about the GI50 (HT29 colon) of the same compound?
Answer: 18.6 µM

Question: And the TGI (HT29 colon)?
Answer: 34.4 µM

Question: And the GI50 (UACC-62 melanoma)?
Answer: 27 µM

Question: What about the TGI (UACC-62 melanoma) of the same compound?
Answer: > 100 µM

Question: And the GI50 (SK-OV-3 ovarian)?
Answer: 51.2 µM

Question: What about the TGI (SK-OV-3 ovarian) of the same compound?
Answer: > 100 µM

Question: What about the GI50 (EKVX NSCLC) of the same compound?
Answer: 20 µM

Question: What about the TGI (EKVX NSCLC) of the same compound?
Answer: 54.1 µM

Question: What about the GI50 (HCT-116 colon) of the same compound?
Answer: 18.1 µM

Question: And the TGI (HCT-116 colon)?
Answer: 42.1 µM

Question: And the GI50 (NCI/ADR-RES ovarian)?
Answer: 32 µM

Question: And the TGI (NCI/ADR-RES ovarian)?
Answer: > 100 µM

Question: And the GI50 (T-47D breast)?
Answer: 15.7 µM

Question: What about the TGI (T-47D breast) of the same compound?
Answer: 39.3 µM

Question: What about the GI50 (HS 578T breast) of the same compound?
Answer: 24.2 µM

Question: What about the TGI (HS 578T breast) of the same compound?
Answer: 77.4 µM

Question: And the GI50 (NCI-H23 lung)?
Answer: 18.3 µM

Question: What about the TGI (NCI-H23 lung) of the same compound?
Answer: 47.9 µM

Question: And the GI50 (SF-295 CNS)?
Answer: 17.4 µM

Question: And the TGI (SF-295 CNS)?
Answer: 34.5 µM

Question: What about the GI50 (M14 melanoma) of the same compound?
Answer: 18.2 µM

Question: What about the TGI (M14 melanoma) of the same compound?
Answer: 54.5 µM

Question: And the GI50 (OVCAR-5 ovarian)?
Answer: 21.3 µM

Question: And the TGI (OVCAR-5 ovarian)?
Answer: 57 µM

Question: What about the GI50 (U251 CNS) of the same compound?
Answer: 19.4 µM

Question: And the TGI (U251 CNS)?
Answer: 38.1 µM

Question: What about the GI50 (KM12 colon) of the same compound?
Answer: 17.4 µM

Question: What about the TGI (KM12 colon) of the same compound?
Answer: 37.8 µM

Question: And the GI50 (SF-539 CNS)?
Answer: 16.6 µM

Question: And the TGI (SF-539 CNS)?
Answer: 31.3 µM

Question: And the GI50 (A498 renal)?
Answer: > 100 µM

Question: What about the TGI (A498 renal) of the same compound?
Answer: > 100 µM

Question: And the GI50 (SNB-19 CNS)?
Answer: 33.9 µM

Question: What about the TGI (SNB-19 CNS) of the same compound?
Answer: > 100 µM

Question: What about the GI50 (SW-620 colon) of the same compound?
Answer: 20.3 µM

Question: What about the TGI (SW-620 colon) of the same compound?
Answer: 40.9 µM

Question: What about the GI50 (A549 NSCLC) of the same compound?
Answer: 22.1 µM

Question: And the TGI (A549 NSCLC)?
Answer: 49.9 µM

Question: What about the GI50 (SK-MEL-5 melanoma) of the same compound?
Answer: 14 µM

Question: What about the TGI (SK-MEL-5 melanoma) of the same compound?
Answer: 27.2 µM

Question: What about the GI50 (MOLT-4 leukemia) of the same compound?
Answer: 14.4 µM

Question: And the TGI (MOLT-4 leukemia)?
Answer: 71.1 µM

Question: What about the GI50 (NCI-H522 lung) of the same compound?
Answer: 13.6 µM

Question: What about the TGI (NCI-H522 lung) of the same compound?
Answer: 29.3 µM

Question: And the GI50 (HCC-2998 colon)?
Answer: 17.7 µM

Question: What about the TGI (HCC-2998 colon) of the same compound?
Answer: 34 µM

Question: And the GI50 (RPMI-8226 leukemia)?
Answer: 20.9 µM

Question: What about the TGI (RPMI-8226 leukemia) of the same compound?
Answer: 43.9 µM

Question: And the GI50 (K-562 leukemia)?
Answer: 17.5 µM

Question: What about the TGI (K-562 leukemia) of the same compound?
Answer: 71.7 µM

Question: And the GI50 (OVCAR-8 ovarian)?
Answer: 31.6 µM

Question: What about the TGI (OVCAR-8 ovarian) of the same compound?
Answer: > 100 µM

Question: What about the GI50 (RXF 393 renal) of the same compound?
Answer: 27.3 µM

Question: And the TGI (RXF 393 renal)?
Answer: 68.4 µM

Question: And the GI50 (PC-3 prostate)?
Answer: 22.8 µM

Question: And the TGI (PC-3 prostate)?
Answer: 55.6 µM

Question: And the GI50 (HOP-62 NSCLC)?
Answer: 25.8 µM

Question: What about the TGI (HOP-62 NSCLC) of the same compound?
Answer: 86.3 µM

Question: And the GI50 (COLO 205 colon)?
Answer: 18.7 µM

Question: What about the TGI (COLO 205 colon) of the same compound?
Answer: 38.4 µM

Question: And the GI50 (MALME-3M melanoma)?
Answer: 16.1 µM

Question: And the TGI (MALME-3M melanoma)?
Answer: 35 µM

Question: And the GI50 (UACC-257 melanoma)?
Answer: 45 µM

Question: And the TGI (UACC-257 melanoma)?
Answer: > 100 µM

Question: What about the GI50 (TK-10 renal) of the same compound?
Answer: 40.1 µM

Question: What about the TGI (TK-10 renal) of the same compound?
Answer: > 100 µM

Question: What about the GI50 (SN12C renal) of the same compound?
Answer: 29.5 µM

Question: What about the TGI (SN12C renal) of the same compound?
Answer: > 100 µM

Question: And the GI50 (MDA-MB-231 breast)?
Answer: 22.9 µM

Question: What about the TGI (MDA-MB-231 breast) of the same compound?
Answer: 61 µM

Question: And the GI50 (IGROV1 ovarian)?
Answer: 17 µM

Question: What about the TGI (IGROV1 ovarian) of the same compound?
Answer: 37.9 µM

Question: And the GI50 (OVCAR-3 ovarian)?
Answer: 16.5 µM

Question: What about the TGI (OVCAR-3 ovarian) of the same compound?
Answer: 31.7 µM

Question: What about the GI50 (NCI-H226 lung) of the same compound?
Answer: 33.4 µM

Question: And the TGI (NCI-H226 lung)?
Answer: > 100 µM

Question: And the GI50 (HL-60(TB) leukemia)?
Answer: 17.5 µM

Question: And the TGI (HL-60(TB) leukemia)?
Answer: 40.6 µM

Question: And the GI50 (NCI-H460 lung)?
Answer: 23.7 µM

Question: And the TGI (NCI-H460 lung)?
Answer: 56 µM

Question: What about the GI50 (SF-268 CNS) of the same compound?
Answer: 15.7 µM

Question: And the TGI (SF-268 CNS)?
Answer: 36.4 µM

Question: And the GI50 (LOX IMVI melanoma)?
Answer: 1.7 µM

Question: What about the TGI (LOX IMVI melanoma) of the same compound?
Answer: 3.47 µM

Question: What about the GI50 (ACHN renal) of the same compound?
Answer: 18.1 µM

Question: And the TGI (ACHN renal)?
Answer: 37.8 µM

Question: What about the GI50 (MCF7 breast) of the same compound?
Answer: 14.5 µM

Question: What about the TGI (MCF7 breast) of the same compound?
Answer: 48.3 µM

Question: What about the GI50 (CCRF-CEM leukemia) of the same compound?
Answer: 10.7 µM

Question: And the TGI (CCRF-CEM leukemia)?
Answer: 35.9 µM

Question: And the GI50 (CAKI-1 renal)?
Answer: 15.8 µM

Question: And the TGI (CAKI-1 renal)?
Answer: 30.7 µM

Question: And the GI50 (SK-MEL-2 melanoma)?
Answer: 21.1 µM

Question: What about the TGI (SK-MEL-2 melanoma) of the same compound?
Answer: 60.8 µM

Question: And the GI50 (DU-145 prostate)?
Answer: 17.2 µM

Question: And the TGI (DU-145 prostate)?
Answer: 37.8 µM

Question: What about the GI50 (SR leukemia) of the same compound?
Answer: 6.06 µM

Question: What about the TGI (SR leukemia) of the same compound?
Answer: 31.7 µM

Question: And the GI50 (SK-MEL-28 melanoma)?
Answer: 36.4 µM

Question: What about the TGI (SK-MEL-28 melanoma) of the same compound?
Answer: > 100 µM

Question: What about the GI50 (OVCAR-4 ovarian) of the same compound?
Answer: 37.1 µM

Question: And the TGI (OVCAR-4 ovarian)?
Answer: > 100 µM
